Laboratory results: publication PMC12274840 (The Journal of Biological Chemistry, 2025)
Values after ≈ are worked out from the molar mass of the structure shown.

Key:
[1] = system: E. coli KA797 cells carrying pUK21 with CTX-M-14 Y105G; type: cell-based, Escherichia coli; conditions: antibiotic alone
[2] = system: E. coli KA797 cells carrying pUK21 with CTX-M-14 Y105R; type: cell-based, Escherichia coli; conditions: antibiotic alone

## CC1(C)S[C@@H]2[C@H](NC(=O)C(C(=O)O)c3ccccc3)C(=O)N2[C@H]1C(=O)O (some centres unmarked) [carbenicillin]
[1]
  MIC: 1000 µg/mL (≈ 2.64 mM)
[2]
  MIC: 2000 µg/mL (≈ 5.29 mM)
